Test results: patent publication US20210161918A1, “TIGECYCLINE FOR TOPICAL TREATMENT OF ROOT CANAL SPACE” (THE UNIVERSITY OF NORTH CAROLINA AT CHAPEL HILL, priority 2018, published 2021)
Marks after values point to notes of the source that are not given here.

Tests used:
[1] = system: Enterococcus faecalis (ATCC 4083), Streptococcus intermedius (ATCC 31412), Fusobacterium nucleatum (ATCC 49256), Porphyromonas gingivalis (ATCC 33277); assay: MIC and MBC by E-test; type: cell-based
Procedure: Four common endodontic pathogens were selected for the study: Enterococcus faecalis (ATCC 4083), Streptococcus intermedius (ATCC 31412), Fusobacterium nucleatum (ATCC 49256), and Porphyromonas gingivalis (ATCC 33277). […] Then, each microorganism was cultured in their recommended broth as follow; brain heart infusion (BHI) broth for […], Todd Hewitt broth for S. intermedius, chopped meat for F. nucleatum, and tryptic soy broth supplemented with hemin and vitamin K for P. gingivalis. […] One-way analysis of variance (ANOVA), followed by the Tukey's HSD (with p<0.05) was used for the four microorganisms to compare: A) the MICs and MBCs among tested antibiotics, B) the difference between baseline CFUs and post-treatment CFUs for different antibiotics/scaffold formulations and, C) the changes in color among the groups.

[2] = system: polymicrobial biofilm of E. faecalis, S. intermedius, F. nucleatum and P. gingivalis in root canals; assay: Post-treatment CFUs in ex vivo root canals inoculated with bacterial mixture (3-week biofilm), dressed with antibiotics/hydrogel scaffolds; type: cell-based; details: for samples with bacterial growth: n=15 per group; for Log10 CFUs: 1 week dressing
Excerpt: (§1) One hundred and twenty intact single rooted permanent human teeth were collected for the study. All teeth were autoclaved, then access cavities were prepeared and the canal instrumented to size 40/0.04, with saline irrigation. Teeth were autoclaved again to ensure absence of bacteria prior to bacterial inoculation. The root canals were then inoculated with the bacterial mixture, using syringe delivery, with the 30-gauge needle close to the working length. Access cavities were then sealed with a sterile sponge and Cavit (3M ESPE). All teeth were then incubated in the anaerobic chamber. The suspensions were replenished weekly for 3 weeks to allow for biofilm formation and maturation (14).

[3] = Crown color change measurement (tooth discoloration, CIE L*a*b*); design: species or system human
Excerpt: as §1
Crown color was measured as described previously (16). All color measurements were taken in a dark room inside the anaerobic chamber. The instrument was calibrated before the measurement in each group. • The mean baseline color measurements were taken prior to filling the root canal with the antibiotics (C0) and then at 1 week (C1), 2 weeks (C2), and 3 weeks (C3). The results were expressed in the CIE L*a*b* system (L* [black-white], a* [red-green] and b* [blue-yellow]). • Mean color change (ΔE) value was calculated using the following formula; […].
One-way analysis of variance (ANOVA), followed by the Tukey's HSD (with p<0.05) was used for the four microorganisms to compare: A) the MICs and MBCs among tested antibiotics, B) the difference between baseline CFUs and post-treatment CFUs for different antibiotics/scaffold formulations and, C) the changes in color among the groups.

[4] = comparison among tested antibiotics, P<0.05

## Cc1ncc([N+](=O)[O-])n1CCO [metronidazole]
[1]; against any of tested microorganisms
  inhibition zone: no inhibition zone

## O=C(O)c1cn(C2CC2)c2cc(N3CCNCC3)c(F)cc2c1=O [Ciprofloxacin, ciprofloxacin]
[1]; [4]
  Minimum Bactericidal Concentration (MBC): significantly higher
  Minimum Inhibitory Concentration (MIC): significantly higher

## CN(C)c1cc(NC(=O)CNC(C)(C)C)c(O)c2c1C[C@H]1C[C@H]3[C@H](N(C)C)C(O)=C(C(N)=O)C(=O)[C@@]3(O)C(O)=C1C2=O [Tigecycline]
[2]; 0.1 mg/mL
  samples with bacterial growth: 93.3%
[2]; 0.1 mg/ml in hydrogel scaffold
  Log10 CFUs: 3.38 ^b
[2]; 1 mg/mL
  samples with bacterial growth: 33.3%
[2]; 1 mg/ml in hydrogel scaffold
  Log10 CFUs: 0.93 ^c
[3]; 1 mg/mL, one week post-treatment
  mean color change (ΔE): 6.9±1.9
[3]; 1 mg/ml, 2 and 3 weeks post-treatment
  mean color change (ΔE): 8.4±2.0
[3]; greater than 1 mg/ml to about 10 mg/mL, after applying an inner bonding within the coronal endodontic access preparation
  tooth discoloration: no detectable discoloration
